In PubChem BioAssay (NCI):
Values joined by “and” are separate entries in the source; they are usually repeats but may differ in a detail not shown here. Identical values can stand only once.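 In this assay, cells in 96-well plates receive the compound at five concentrations for 48 hours. Endpoints are linearly interpolated between the surrounding concentrations. Abbreviation: GI50, concentration required for 50% inhibition of growth. TGI denotes the concentration required for complete inhibition of growth.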

Columns and labels:
Experiment in all cases: DTP human tumour cell line panel, 48 h
UACC-62 melanoma = system: UACC-62 melanoma
RXF 393 renal = system: RXF 393 renal
DU-145 prostate = system: DU-145 prostate
MALME-3M melanoma = system: MALME-3M melanoma
HCT-116 colon = system: HCT-116 colon
SK-OV-3 ovarian = system: SK-OV-3 ovarian
RPMI-8226 leukemia = system: RPMI-8226 leukemia
SNB-19 CNS = system: SNB-19 CNS
NCI-H226 lung = system: NCI-H226 lung
OVCAR-8 ovarian = system: OVCAR-8 ovarian

SMILES: C=C(C)[C@@H]1CC=C(CO)CC1
- GI50 (UACC-62 melanoma): > 10000 nM
- TGI (UACC-62 melanoma): > 10 µM and 964 µM
- GI50 (RXF 393 renal): > 10000 nM
- TGI (RXF 393 renal): > 10 µM and 569 µM
- TGI (DU-145 prostate): > 10 µM
- GI50 (MALME-3M melanoma): > 10 µM
- TGI (MALME-3M melanoma): > 10 µM and 1080 µM
- GI50 (HCT-116 colon): > 10000 nM
- TGI (HCT-116 colon): > 10 µM and 627 µM
- GI50 (SK-OV-3 ovarian): > 10 µM
- TGI (SK-OV-3 ovarian): > 10 µM and 2570 µM
- TGI (RPMI-8226 leukemia): > 10 µM
- GI50 (SNB-19 CNS): > 10 µM
- TGI (SNB-19 CNS): > 10 µM and 1010 µM
- GI50 (NCI-H226 lung): > 10000 nM
- TGI (NCI-H226 lung): > 10 µM and 1090 µM
- GI50 (OVCAR-8 ovarian): > 10000 nM
- TGI (OVCAR-8 ovarian): > 10 µM and 857 µM

SMILES: NC(=O)[C@H]1CCN(c2ncnc(N)c2F)C[C@@H]1N1CCC[C@@H](Nc2cc(Cl)cc(C(F)(F)F)c2)C1=O
- GI50 (UACC-62 melanoma): 13900 nM
- TGI (UACC-62 melanoma): 29.5 µM
- GI50 (RXF 393 renal): 6010 nM
- TGI (RXF 393 renal): 25.5 µM
- GI50 (DU-145 prostate): 10800 nM
- TGI (DU-145 prostate): > 100 µM
- GI50 (MALME-3M melanoma): 19.1 µM
- TGI (MALME-3M melanoma): 42.8 µM
- GI50 (HCT-116 colon): 15500 nM
- TGI (HCT-116 colon): 43 µM
- GI50 (SK-OV-3 ovarian): 6.33 µM
- TGI (SK-OV-3 ovarian): 56.3 µM
- GI50 (RPMI-8226 leukemia): 16800 nM
- TGI (RPMI-8226 leukemia): 56.3 µM
- GI50 (SNB-19 CNS): 25.8 µM
- TGI (SNB-19 CNS): > 100 µM
- GI50 (NCI-H226 lung): 18400 nM
- TGI (NCI-H226 lung): 70 µM
- GI50 (OVCAR-8 ovarian): 25600 nM
- TGI (OVCAR-8 ovarian): > 100 µM

SMILES: COc1cc(Cn2cc3c(c2)-c2oncc2CC3)cc(OC)c1OC
- GI50 (UACC-62 melanoma): 36.2 nM
- TGI (UACC-62 melanoma): > 81.7 µM
- GI50 (RXF 393 renal): 25.5 nM
- TGI (RXF 393 renal): > 100 µM
- GI50 (DU-145 prostate): 41.2 nM
- TGI (DU-145 prostate): > 100 µM
- GI50 (MALME-3M melanoma): 0.0254 µM
- TGI (MALME-3M melanoma): 30.3 µM
- GI50 (HCT-116 colon): 37.9 nM
- TGI (HCT-116 colon): > 100 µM
- GI50 (SK-OV-3 ovarian): 0.0402 µM
- TGI (SK-OV-3 ovarian): > 57.5 µM
- GI50 (RPMI-8226 leukemia): 45.9 nM
- TGI (RPMI-8226 leukemia): 10.4 µM
- GI50 (SNB-19 CNS): 0.0437 µM
- TGI (SNB-19 CNS): > 100 µM
- GI50 (NCI-H226 lung): 256 nM
- TGI (NCI-H226 lung): > 100 µM
- GI50 (OVCAR-8 ovarian): 54.8 nM
- TGI (OVCAR-8 ovarian): > 100 µM

SMILES: CSc1nnc(CCSc2ccnc3c(C(F)(F)F)cccc23)o1
- GI50 (UACC-62 melanoma): > 100000 nM
- TGI (UACC-62 melanoma): > 100 µM
- GI50 (RXF 393 renal): 65300 nM
- TGI (RXF 393 renal): > 100 µM
- GI50 (DU-145 prostate): > 100000 nM
- TGI (DU-145 prostate): > 100 µM
- GI50 (MALME-3M melanoma): > 100 µM
- TGI (MALME-3M melanoma): > 100 µM
- GI50 (HCT-116 colon): 66500 nM
- TGI (HCT-116 colon): > 100 µM
- GI50 (SK-OV-3 ovarian): > 100 µM
- TGI (SK-OV-3 ovarian): > 100 µM
- GI50 (RPMI-8226 leukemia): 33500 nM
- TGI (RPMI-8226 leukemia): > 100 µM
- GI50 (SNB-19 CNS): 61.6 µM
- TGI (SNB-19 CNS): > 100 µM
- GI50 (NCI-H226 lung): > 100000 nM
- TGI (NCI-H226 lung): > 100 µM
- GI50 (OVCAR-8 ovarian): > 100000 nM
- TGI (OVCAR-8 ovarian): > 100 µM

SMILES: Cn1c(=O)c2[nH]c(/N=N/N3CCN(CCO)CC3)nc2n(C)c1=O
- TGI (UACC-62 melanoma): > 100 µM
- TGI (RXF 393 renal): > 100 µM
- TGI (DU-145 prostate): > 100 µM
- TGI (MALME-3M melanoma): > 100 µM
- TGI (HCT-116 colon): > 100 µM
- TGI (SK-OV-3 ovarian): > 100 µM
- TGI (RPMI-8226 leukemia): > 100 µM
- TGI (SNB-19 CNS): > 100 µM
- TGI (NCI-H226 lung): > 100 µM
- TGI (OVCAR-8 ovarian): > 100 µM

SMILES: O=C(Nc1cccc(Cl)c1)Nc1ncc(CCNc2ncnc3ccsc23)s1
- GI50 (UACC-62 melanoma): 1100 nM
- TGI (UACC-62 melanoma): 11.7 µM
- GI50 (RXF 393 renal): 1930 nM and 2160 nM
- TGI (RXF 393 renal): 10.1 µM and > 10 µM
- GI50 (DU-145 prostate): 4590 nM and 2740 nM
- TGI (DU-145 prostate): 20.5 µM and > 10 µM
- GI50 (MALME-3M melanoma): 3.23 µM and 4.07 µM
- TGI (MALME-3M melanoma): 26 µM and > 10 µM
- GI50 (HCT-116 colon): 1600 nM and 2350 nM
- TGI (HCT-116 colon): 16.1 µM and > 10 µM
- GI50 (SK-OV-3 ovarian): 9.12 µM and 4.86 µM
- TGI (SK-OV-3 ovarian): 24.1 µM and > 10 µM
- GI50 (RPMI-8226 leukemia): 2980 nM and 1320 nM
- TGI (RPMI-8226 leukemia): 33.5 µM and 5.81 µM
- GI50 (SNB-19 CNS): 11.2 µM and > 10 µM
- TGI (SNB-19 CNS): 26.9 µM and > 10 µM
- GI50 (NCI-H226 lung): 1860 nM and 2060 nM
- TGI (NCI-H226 lung): 8.98 µM and > 10 µM
- GI50 (OVCAR-8 ovarian): 1680 nM and 1220 nM
- TGI (OVCAR-8 ovarian): 9.64 µM and 5.31 µM

SMILES: CC1=C(C(=O)OCc2ccccc2)C(c2ccc3c(c2)OCO3)n2c(nc3ccccc32)N1 (stereo unspecified)
- GI50 (UACC-62 melanoma): 513 nM
- TGI (UACC-62 melanoma): > 100 µM
- GI50 (RXF 393 renal): 305 nM
- TGI (RXF 393 renal): > 100 µM
- GI50 (DU-145 prostate): 488 nM
- TGI (DU-145 prostate): > 100 µM
- GI50 (MALME-3M melanoma): 0.37 µM
- TGI (MALME-3M melanoma): > 100 µM
- GI50 (HCT-116 colon): 420 nM
- TGI (HCT-116 colon): > 100 µM
- GI50 (SK-OV-3 ovarian): 0.467 µM
- TGI (SK-OV-3 ovarian): > 100 µM
- GI50 (SNB-19 CNS): 0.54 µM
- TGI (SNB-19 CNS): > 100 µM
- GI50 (NCI-H226 lung): > 100000 nM
- TGI (NCI-H226 lung): > 100 µM
- GI50 (OVCAR-8 ovarian): 628 nM
- TGI (OVCAR-8 ovarian): > 100 µM
